Test results published in ChEMBL document CHEMBL1240366, “Blockade of X4-tropic HIV-1 cellular entry by GSK812397, a potent noncompetitive CXCR4 receptor antagonist” (Antimicrob Agents Chemother, 2010).

Key:
[1] = Oral bioavailability in rat; format: ADME, organism-based; conditions: in vivo
[2] = Half life in iv dosed rat; format: ADME, organism-based; conditions: in vivo

## CCCN(CCC)CCCCN(C)Cc1ccc(CN(Cc2ncc[nH]2)Cc2nccn2C)cc1
[1]
  bioavailability: 21%
[2]
  half-life: 99 h
